# Assay results as given in patent US20250179550A1, “Methods to imbue polymeric materials with new structures and functions” (The Regents of the University of California, priority 2022, published 2025).
# Legend:
# MicD-F and ArtGox [1] = experiment: One-pot cyclodehydration and dehydrogenation of peptide substrates by MicD-F and ArtGox, LC-MS; format: biochemical, Microcystis aeruginosa; Arthrospira platensis
# From the text: Next, we explored whether MicD-F and ArtGox could act in synergy to convert peptides containing non-α-amino acids at the +1 site directly into the corresponding thiazoles 3(a-i) (FIG. 9A). […] ArtGox efficiently oxidized each thiazoline to the corresponding thiazole in yields that exceeded 97% over the two steps for every example (products 3(a-i)) (FIGS. 9B and D). UHPLC analysis of each reaction mixture confirmed that thiazoles 3a-e were the sole reaction product. Coelution with excess flavin mononucleotide precluded UHPLC analysis of thiazoles 3f-i (FIG. 18).
# Reactions were analyzed as described above. Under these conditions, every peptide evaluated was a substrate for MicD-F and a few were substrates for both MicD-F and ArtGox (FIG. 10B-C). Substrates containing β^3-amino acid-, β^2-amino acid-, or cyclic β^2,β^3-amino acids at the −1 site (substrates 4(a-d)), were fully consumed under these conditions (<1% unmodified peptide). […] In contrast, substrate 4b, with geminal β^2-methyl substituents, was converted into a 30/70 mixture of thiazoline 5b and thiazole 6b. Substrates 4e-g containing aramid monomers at the −1 position reacted more slowly under these conditions, producing the analogous thiazoline products in 65-85% yield after 24 h reaction at pH 8 (FIG. 10B-C). […] With the exception of substrate 4c, increasing the pH to 9.0 promoted formation of the desired thiazole product (FIG. 21B-C). However, even under these conditions only substrate 4b (88%) yielded greater than 41% thiazole product (FIG. 21B-C). […] ArtGox appears especially intolerant of substitution or sp^2 hybridization at the β^3-position of substrates at the −1 site.
# A typical reaction scale for analysis via LC-MS was 30 μL. Peptide substrate stock (3 L) suspended at 1 mM in 10 mM bicine, 150 mM NaCl, 1 mM TCEP, pH 9.0 was added to 21 L of reaction buffer (7.14 mM ATP, 7.14 mM MgCl2, 2.86 mM FMN, 100 mM bicine, 150 mM NaCl, 1 mM TCEP, pH 8.0 or 9.0). Separately, aliquots of MicD-F (500 M in 20 mM HEPES, 150 mM NaCl, 1 mM TCEP, pH 7.4) and ArtGox (800 M in 20 mM HEPES, 150 mM NaCl, 1 mM TCEP, pH 7.4) were thawed on ice. The thawed enzyme aliquots were then diluted with cold storage buffer (20 mM HEPES, 150 mM NaCl, 1 mM TCEP, pH 7.4) to a concentration equal to 10× the desired enzyme concentration. The peptide and enzyme solutions were then incubated at 37° C. for 15 minutes. After temperature equilibration, enzyme solutions (3 μL of each) were added to the peptide solution and gently pipette mixed. The resulting solution was then incubated at 37° C. for the indicated amount of time before LC-MS analysis.
# To remove 6×His-tagged enzymes, Ni-NTA (Qiagen, Hilden, Germany) slurry and crude reaction were mixed 1:1 by volume and incubated on ice for 30 minutes with occasional agitation. The Ni-NTA resin was then removed by centrifugation at 21,300×g for 10 minutes at 4° C. Enzyme-depleted reaction mixture (1 μL) was used for LC-MS analysis which was performed on an Agilent 1290 Infinity II HPLC connected to an Agilent 6530B QTOF AJS-ESI. The mobile phase for LC-MS was water and acetonitrile with 0.1% (v/v) formic acid and a flow rate of 0.7 mL/min. Each sample was injected onto an Eclipse XDB C-18 column (2.1×50 mm, 1.8-Micron, room temperature, Agilent) and separated using a linear gradient from 5 to 95% acetonitrile over 4.5 minutes after an initial hold at 5% acetonitrile for 0.5 minutes. The following parameters were used during acquisition: Fragmentor voltage 175 V, gas temperature 300° C., gas flow 8 L/min, sheath gas temperature 350° C., sheath gas flow 11 L/min, nebulizer pressure 35 psi, skimmer voltage 65 V, Vcap 3500 V, 1 spectra/s.
# MicD-F [2] = experiment: MicD-F-catalyzed cyclodehydration of leader-free peptide substrates, LC-MS; format: biochemical, Microcystis aeruginosa; settings: pH 8.0, 37° C.; for cyclodehydration by MicD-F: 50 mol % MicD-F, 24 hours
# MicD-F, sequence (as listed by the source): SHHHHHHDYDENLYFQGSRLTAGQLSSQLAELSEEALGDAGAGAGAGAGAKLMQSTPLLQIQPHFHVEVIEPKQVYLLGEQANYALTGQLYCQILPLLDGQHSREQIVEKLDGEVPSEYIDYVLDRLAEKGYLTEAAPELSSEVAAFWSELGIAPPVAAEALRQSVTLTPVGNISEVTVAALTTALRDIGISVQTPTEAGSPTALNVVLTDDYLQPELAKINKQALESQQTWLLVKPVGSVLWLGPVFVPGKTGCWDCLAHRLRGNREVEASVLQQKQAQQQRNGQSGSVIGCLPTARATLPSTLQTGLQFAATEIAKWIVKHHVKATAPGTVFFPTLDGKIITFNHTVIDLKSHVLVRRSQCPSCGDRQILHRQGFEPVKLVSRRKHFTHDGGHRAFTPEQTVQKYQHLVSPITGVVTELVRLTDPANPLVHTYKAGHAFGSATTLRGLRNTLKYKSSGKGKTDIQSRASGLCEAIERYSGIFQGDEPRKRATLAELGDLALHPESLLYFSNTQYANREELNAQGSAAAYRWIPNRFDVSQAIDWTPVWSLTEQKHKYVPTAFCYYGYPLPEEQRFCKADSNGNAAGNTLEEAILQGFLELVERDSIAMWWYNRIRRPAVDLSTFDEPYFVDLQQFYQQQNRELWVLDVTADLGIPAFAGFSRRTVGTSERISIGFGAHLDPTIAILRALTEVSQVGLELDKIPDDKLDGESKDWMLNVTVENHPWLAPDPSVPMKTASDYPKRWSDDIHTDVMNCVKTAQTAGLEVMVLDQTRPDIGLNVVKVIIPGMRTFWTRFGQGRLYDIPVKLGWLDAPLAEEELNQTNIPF
# Method: We began by exploring the tolerance of MicD-F for sequences containing non-α-amino acid monomers at the +1 site (FIG. 8A and FIG. 9A-B). A series of nine potential substrates were prepared in which a non-α-amino acid preceded the reaction site (substrates 1(a-i)). Monomers evaluated included arenes, aramids, fluorophores, and linear and cyclic β-amino acids. […] Cyclization was analyzed initially via liquid chromatography-mass spectrometry (LC-MS) and the extent of product formation estimated by integrating the extracted ion chromatogram (FIG. 9B-C). Virtually every substrate examined underwent MicD-F-catalyzed cyclization to the corresponding thiazoline under these conditions. Substrates containing electron-withdrawing or donating aromatic rings, bulky multi-ring systems, and linear and cyclic β-amino acids were all cyclized efficiently by MicD-F, with yields between 91 and 99% (products 2(a-i)). UHPLC analysis of each reaction mixture confirmed that thiazolines 2a-i were the sole reaction products under these conditions (FIG. 16).
# A typical reaction scale for analysis via LC-MS was 30 μL. Peptide substrate stock (3 μL) suspended at 1 mM (10 mM bicine, 150 mM NaCl, 1 mM TCEP, pH 9.0) was added to 24 μL of reaction buffer (6.25 mM ATP, 6.25 mM MgCl2, 100 mM bicine, 150 mM NaCl, 1 mM TCEP, pH 8.0 or 9.0). Separately, an aliquot of MicD-F (500 M in 20 mM HEPES, 150 mM NaCl, 1 mM TCEP, pH 7.4) was thawed on ice. The thawed enzyme aliquot was then diluted with cold storage buffer (20 mM HEPES, 150 mM NaCl, 1 mM TCEP, pH 7.4) to a concentration equal to 10× the desired enzyme concentration. The peptide and enzyme solutions were then incubated at 37° C. for 15 minutes. After temperature equilibration, enzyme solution (3 μL) was added to the peptide solution and gently pipette mixed. The resulting solution was then incubated at 37° C. for the indicated amount of time before LC-MS analysis.
# To remove 6×His-tagged enzymes, Ni-NTA (Qiagen, Hilden, Germany) slurry and crude reaction were mixed 1:1 by volume and incubated on ice for 30 minutes with occasional agitation. […]
# MicD-F [3] = experiment: Reaction of protein substrates (mCherry and Rop variants) with MicD-F, LC-MS deconvoluted mass; format: biochemical, Microcystis aeruginosa; settings: 50 mol % MicD-F, 24 hours
# Method: Reactions of proteins with MicD-F were performed in the manner described above with minor modifications. Namely, the substrate stock was a 1 mM solution of protein in 20 mM HEPES, 150 mM NaCl, 1 mM TCEP, pH 7.4.
# (§1) Unprocessed reaction mixture (1 μL) was used for LC-MS analysis which was performed on an Agilent 1290 Infinity II HPLC connected to an Agilent 6530B QTOF AJS-ESI. The mobile phase for LC-MS was water and acetonitrile with 0.1% (v/v) formic acid and a flow rate of 0.4 mL/min. Each sample was injected onto a Poroshell 300SB-C8 column (2.1×75 mm, 5-Micron, room temperature, Agilent) using a linear gradient from 5 to 55% acetonitrile over 8 minutes after an initial hold at 5% acetonitrile for 2 minutes (0.4 mL/min). The following parameters were used during acquisition: Fragmentor voltage 225 V, gas temperature 300° C., gas flow 10 L/min, sheath gas temperature 350° C., sheath gas flow 11 L/min, nebulizer pressure 35 psi, skimmer voltage 65 V, Vcap 5000 V, 1 spectra/s. Intact protein masses were obtained via deconvolution using the Maximum Entropy algorithm in Mass Hunter Bioconfirm (V10, Agilent).
# MicD-F and ArtGox [4] = experiment: Reaction of protein substrates with MicD-F and ArtGox in tandem, LC-MS deconvoluted mass; format: biochemical, Microcystis aeruginosa; Arthrospira platensis; settings: 50 mol % MicD-F, 80 mol % ArtGox, pH 9.0, 37° C., 24 hours
# Method: Reactions of proteins with MicD-F and ArtGox were performed in the manner described above with minor modifications. The substrate stock was a 1 mM solution of protein in 20 mM HEPES, 150 mM NaCl, 1 mM TCEP, pH 7.4. Reactions were carried out at either 25° C. or 37° C. as indicated.
# as §1
# [5] = 50 mol % MicD-F, 8 mol % ArtGox, pH 8.0, 37° C., 24 h
# [6] = 50 mol % MicD-F, 8 mol % ArtGox, pH 8.0, 37° C., 24 h, −1 site substrates
substance,measurement,setting,value
IC-[ACHC]-AYDG [substrate 4c],conversion into thiazoline,MicD-F and ArtGox [1]; [5],converted cleanly
same,thiazole formation,MicD-F and ArtGox [1]; [5],no
IC-[ACPC]-AYDG [substrate 4d],conversion into thiazoline,MicD-F and ArtGox [1]; [5],converted cleanly
same,thiazole formation,MicD-F and ArtGox [1]; [5],no
IC-[B2-Dimethyl]-AYDG [substrate 4b],yield of thiazole product,MicD-F and ArtGox [1]; [6],70%
same,yield of thiazoline product,MicD-F and ArtGox [1]; [6],30%
same,yield of thiazole product,"MicD-F and ArtGox [1]; 50 mol % MicD-F, 8 mol % ArtGox, pH 9.0, 37° C., 24 h, −1 site substrates",88%
IC-[B3-HIle]-AYDG [substrate 4a],conversion into thiazoline,MicD-F and ArtGox [1]; [5],converted cleanly
same,thiazole formation,MicD-F and ArtGox [1]; [5],little
ICAYDG [reference compound],conversion by MicD-F,"MicD-F [2]; 5 mol % MicD-F, 4 h",complete conversion
same,two-step conversion into thiazole,"MicD-F and ArtGox [1]; 5 mol % MicD-F, 40 mol % ArtGox, pH 8.0, 37° C., 16 h",complete two-step conversion
"ICIAYDG [model peptide with α-amino acid Ile between the site of cyclization and the AYD motif, reference compound]",cyclodehydration by MicD-F,MicD-F [2],complete reaction
same,thiazole formation,MicD-F and ArtGox [1]; [5],complete conversion
ITAYDG,cyclodehydration by MicD-F,MicD-F [2],significant cyclodehydration
"mCherryC+: mCherry variant with MCAYDG appended to the C-terminus, SEQ ID NO: 9",cyclodehydration of mCherry variants to thiazoline (loss of water),"MicD-F [3]; pH 9.0, 37° C.",virtually complete conversion
same,cyclodehydration of mCherry variants to thiazoline (loss of water),"MicD-F [3]; pH 9.0, 42° C.",nearly completely converted
same,thiazole installation (mass shift relative to MicD-F only),MicD-F and ArtGox [4],expected −2 Da shift
